From EP0351597A2, “"N15-alkyl and N15,N15-di-alkyl derivatives of teicoplanin antibiotics carrying functional groups on the alkyl side chain” (GRUPPO LEPETIT S.p.A., priority 1988, dated 1990) come the findings set out here.

For one series, the system named is P. aeruginosa ISM. The experiment in a line: In vitro antibacterial activity (MIC), standard dilution test. The format is cell-based.
In series [1] the test system is P. vulgaris X19H ATCC 881. The description is as above. The format is cell-based.
Another series relates to S. aureus Tour. Described as above. In kind it is cell-based. An excerpt: Isosensitest broth (Oxoid) and Todd-Hewitt broth (Difco) are used for growing staphylococci and streptococci, respectively. […]
The test system of a further series is S. haemolyticus L 602. The description is as above. In kind it is cell-based. Here is the method:
(§1) Isosensitest broth (Oxoid) and Todd-Hewitt broth (Difco) are used for growing staphylococci and streptococci, respectively. Broth cultures are diluted so that the final inoculum is about 10⁴ colony forming units/ml (CFU/ml).

A further series has as its system S. pyogenes C203. The description is as above. The format is cell-based. Here is the method:
as §1

The next series has as its system S. faecalis ATCC 7080. The description is as above. The format is cell-based. As for the experimental part:
as §1

The test system of series [2] is S. epidermidis ATCC 12228. Described as above. In kind it is cell-based. As for the experimental part:
as §1

A further series concerns S. pneumoniae UC41. The series is described as above. The format is cell-based. As for the experimental part:
as §1

A further series can be described thus: Acid-base titration. In kind it is physicochemical. Conditions: Methylcellosolve/H₂O, 4/1 (v/v); titrated with 0.01 N NaOH after adding 0.01 N HCl.
The next series relates to S. pyogenes L 49. The series can be described thus: In vivo test in mice experimentally infected with S. pyogenes L 49 (ED50). As for the experimental part: The ED₅₀ values (mg/Kg) of representative compounds of the invention in vivo tests in mice experimentally infected with S. pyogenes L 49 and reported in Table V were carried out according to the procedure described by V. Arioli et al., Journal of Antibiotics 29, 511 (1976).

For another series, the system named is E. coli SKF 12140. The series can be described thus: In vitro antibacterial activity (MIC), standard dilution test. In kind it is cell-based.
Where [3] appears, read: Pseudomonas aeruginosa, read-out: MIC.
Where [4] appears, read: Proteus vulgaris, ATCC881, read-out: MIC.
[5] abbreviates: Staphylococcus aureus, S. aureus Tour 10^4, read-out: MIC.
Where [6] appears, read: Staphylococcus aureus, S. aureus Tour 10^6, read-out: MIC.
Setting [7] is: Staphylococcus aureus, S. aureus Tour + 30% bovine serum, read-out: MIC.
Setting [8] is: Streptococcus pyogenes, read-out: MIC.
The mark [9] stands for this setting: Enterococcus faecalis, ATCC7080, read-out: MIC.
[10] abbreviates: Staphylococcus epidermidis, ATCC12228, read-out: MIC.
Setting [11] is: Streptococcus pneumoniae, read-out: MIC.
[12] abbreviates: Streptococcus pyogenes, L49, sc, S. pyogenes L 49, s.c., read-out: ED50.
Setting [13] is: Escherichia coli, SKF12140, read-out: MIC.
Setting [14] is: Staphylococcus haemolyticus, L602, S. haemolyticus L 602, no visible growth after 18-24 h at 37°C, inoculum about 10⁴ CFU/ml, read-out: MIC.
The mark [15] stands for this setting: S. aureus Tour + 30% bovine serum.
Where [16] appears, read: S. haemolyticus L 602, no visible growth after 18-24 h at 37°C, inoculum about 10⁴ CFU/ml.

In brackets after ≈: the same amount, converted by molar mass. Read-outs that look alike come from different tables or passages of the source.

What is called ED50 is the midpoint of the dose-response relation. In the case of `CN(C)CCNC1C(=O)NC2Cc3ccc(c(Cl)c3)Oc3cc4cc(c3O)Oc3ccc(cc3Cl)C(O)C3NC(=O)C(NC(=O)C4NC(=O)C(NC2=O)c2cc(O)cc(c2)Oc2cc1ccc2O)c1ccc(O)c(c1)-c1c(O)cc(O)cc1C(C(=O)O)NC3=O` (stereo not drawn) [Compound 5, N¹⁵-(2-dimethylamino)ethyl teicoplanin aglycon], the MIC in the series on P. aeruginosa ISM (setting [3]) was greater than 128 µg/mL; in [1] (setting [4]), greater than 128 µg/mL; in the series on S. aureus Tour (setting [5]), 0.125 µg/mL (≈ 0.0984 µM); with S. aureus Tour (setting [6]), 0.125 µg/mL (≈ 0.0984 µM); in the series with S. aureus Tour (setting [7]) it was 1 µg/mL; against S. haemolyticus L 602 (Staphylococcus haemolyticus, L602) it was 0.5 µg/mL (≈ 0.394 µM). The MIC in the series with S. pyogenes C203 (setting [8]) is 0.25 µg/mL (≈ 0.197 µM); in the series on S. faecalis ATCC 7080 (setting [9]) it was 0.25 µg/mL (≈ 0.197 µM); in [2] (setting [10]), 0.06 µg/mL (≈ 0.0472 µM); with S. pneumoniae UC41 (setting [11]) it was 0.125 µg/mL (≈ 0.0984 µM); in the series with E. coli SKF 12140 (setting [13]), greater than 128 µg/mL. For the same compound, the pK₁ in the series “Acid-base titration” is 4.75. In the series “Acid-base titration”, this compound displayed a pK₂ of 6.5. The ED50 in the series on S. pyogenes L 49 (setting [12]) came out at 1.25 mg/kg.

Turning to `CC(O)C(C)NC1C(=O)NC2Cc3ccc(c(Cl)c3)Oc3cc4cc(c3O)Oc3ccc(cc3Cl)C(O)C3NC(=O)C(NC(=O)C4NC(=O)C(NC2=O)c2cc(O)cc(c2)Oc2cc1ccc2O)c1ccc(O)c(c1)-c1c(O)cc(O)cc1C(C(=O)O)NC3=O` (stereo not drawn) [Compound 8, N¹⁵-(1-methyl-2-hydroxy)propyl teicoplanin aglycon], the MIC in the series on P. aeruginosa ISM (setting [3]) is greater than 128 µg/mL; in series [1] (setting [4]), greater than 128 µg/mL; in the series with S. aureus Tour (setting [5]), 0.12 µg/mL (≈ 0.0944 µM); in the series with S. aureus Tour (setting [6]), 0.12 µg/mL (≈ 0.0944 µM); with S. aureus Tour (setting [7]) it was 2 µg/mL; with S. haemolyticus L 602 (setting [14]) it was 0.5 µg/mL (≈ 0.393 µM). In addition, the MIC in the series on S. pyogenes C203 (setting [8]) was 0.12 µg/mL (≈ 0.0944 µM); in the series on S. faecalis ATCC 7080 (setting [9]) it was 0.12 µg/mL (≈ 0.0944 µM); in series [2] (setting [10]), 0.06 µg/mL (≈ 0.0472 µM); with S. pneumoniae UC41 (setting [11]), 0.25 µg/mL (≈ 0.197 µM); in the series on E. coli SKF 12140 (setting [13]) it was greater than 128 µg/mL. In the series on S. pyogenes L 49 (setting [12]), the median effective dose (ED50) came out at 0.86 mg/kg.

Regarding “N¹⁵-(2-dimethylamino)ethyl teicoplanin [Compound 3]”, the MIC against P. aeruginosa ISM is recorded as greater than 128 microgram/ml; in series [1] it was greater than 128 microgram/ml; in the series on S. aureus Tour (S. aureus Tour 10^4), 0.125 microgram/ml; in the series with S. aureus Tour (S. aureus Tour 10^6) it was 0.5 microgram/ml; in the series with S. aureus Tour (setting [15]) it was 0.5 microgram/ml; with S. haemolyticus L 602 (setting [16]), 2 microgram/ml. The MIC against S. pyogenes C203 was 0.125 microgram/ml; in the series with S. faecalis ATCC 7080 it was 0.125 microgram/ml; in series [2], 0.125 microgram/ml; in the series on S. pneumoniae UC41, 0.125 microgram/ml; in the series on E. coli SKF 12140, greater than 128 microgram/ml. For the same compound, the pK₁ in the series “Acid-base titration” is listed as 4.85. In “Acid-base titration”, this compound returned a pK₂ of 6.2. Besides, the pK₃ in “Acid-base titration” amounted to 8.45. Moreover, the median effective dose (ED50) was greater than 300 mg/kg in the series with S. pyogenes L 49 (S. pyogenes L 49, o.s.) and 0.41 mg/kg in the series on S. pyogenes L 49 (S. pyogenes L 49, s.c.).

For the compound “N¹⁵-(2-methoxyethoxy)methyl teicoplanin [Compound 4]”, the MIC in the series on P. aeruginosa ISM is listed as greater than 128 microgram/ml; in series [1], greater than 128 microgram/ml; in the series on S. aureus Tour (S. aureus Tour 10^4), 0.12 microgram/ml; against S. aureus Tour (S. aureus Tour 10^6), 0.5 microgram/ml; with S. aureus Tour (setting [15]) it was 1 microgram/ml; in the series with S. haemolyticus L 602 (setting [16]), 8 microgram/ml. For the same compound, the MIC with S. pyogenes C203 is 0.06 microgram/ml; against S. faecalis ATCC 7080 it was 0.125 microgram/ml; in [2] it was 0.125 microgram/ml; against S. pneumoniae UC41 it was 0.125 microgram/ml; against E. coli SKF 12140, greater than 128 microgram/ml.

Take “N¹⁵-(2,3-Dihydroxy)propyl teicoplanin [Compound 1]”: the MIC with P. aeruginosa ISM is given as greater than 128 microgram/ml; in series [1], greater than 128 microgram/ml; in the series on S. aureus Tour (S. aureus Tour 10^4), 0.5 microgram/ml; with S. aureus Tour (S. aureus Tour 10^6) it was 2 microgram/ml; with S. aureus Tour (setting [15]), 2 microgram/ml; in the series with S. haemolyticus L 602 (setting [16]) it was 32 microgram/ml. Further, the MIC in the series on S. pyogenes C203 is 0.06 microgram/ml; against S. faecalis ATCC 7080, 0.12 microgram/ml; in series [2], 0.25 microgram/ml; against S. pneumoniae UC41, 0.25 microgram/ml; against E. coli SKF 12140, greater than 128 microgram/ml. The pK₁ in “Acid-base titration” worked out at 4.7. In the series “Acid-base titration”, this compound came in with a pK₂ of 6.

For the compound “N¹⁵-(1-methyl-2-hydroxy)propyl) teicoplanin [Compound 2]”, the MIC in the series on P. aeruginosa ISM is greater than 128 microgram/ml; in series [1], greater than 128 microgram/ml; in the series on S. aureus Tour (S. aureus Tour 10^4) it was 0.5 microgram/ml; against S. aureus Tour (S. aureus Tour 10^6) it was 1 microgram/ml; in the series on S. aureus Tour (setting [15]), 2 microgram/ml; against S. haemolyticus L 602 (setting [16]), 16 microgram/ml. Also, the MIC in the series with S. pyogenes C203 was 0.06 microgram/ml; in the series with S. faecalis ATCC 7080, 0.12 microgram/ml; in series [2], 0.25 microgram/ml; in the series on S. pneumoniae UC41 it was 0.25 microgram/ml; against E. coli SKF 12140, greater than 128 microgram/ml. In “Acid-base titration”, this compound displayed a pK₁ of 5.05. Besides, the pK₂ in the series “Acid-base titration” is on record as 6.35.

As to `CC(CO)NC1C(=O)NC2Cc3ccc(c(Cl)c3)Oc3cc4cc(c3O)Oc3ccc(cc3Cl)C(O)C3NC(=O)C(NC(=O)C4NC(=O)C(NC2=O)c2cc(O)cc(c2)Oc2cc1ccc2O)c1ccc(O)c(c1)-c1c(O)cc(O)cc1C(C(=O)O)NC3=O` (stereo not drawn) [Compound 7, N¹⁵-(1-methyl-2-hydroxy)ethyl teicoplanin aglycon], the MIC in the series on P. aeruginosa ISM (setting [3]) is greater than 128 µg/mL; in series [1] (setting [4]) it was greater than 128 µg/mL; in the series with S. aureus Tour (setting [5]), 0.06 µg/mL (≈ 0.0477 µM); in the series on S. aureus Tour (setting [6]), 0.12 µg/mL (≈ 0.0955 µM); in the series on S. aureus Tour (setting [7]), 1 µg/mL; in the series with S. haemolyticus L 602 (setting [14]) it was 0.5 µg/mL (≈ 0.398 µM). The MIC in the series on S. pyogenes C203 (setting [8]) was 0.12 µg/mL (≈ 0.0955 µM); in the series with S. faecalis ATCC 7080 (setting [9]) it was 0.25 µg/mL (≈ 0.199 µM); in [2] (setting [10]) it was 0.06 µg/mL (≈ 0.0477 µM); in the series with S. pneumoniae UC41 (setting [11]), 0.12 µg/mL (≈ 0.0955 µM); in the series on E. coli SKF 12140 (setting [13]) it was greater than 128 µg/mL. Further, in the series on S. pyogenes L 49 (setting [12]), the 50% effective dose (ED50) worked out at 0.84 mg/kg.

On to “N¹⁵-(1-methyl-2-hydroxy)ethyl teicoplanin [Compound 6]”, for which the MIC in the series on P. aeruginosa ISM is on record as greater than 128 microgram/ml; in [1], greater than 128 microgram/ml; against S. aureus Tour (S. aureus Tour 10^4) it was 0.25 microgram/ml; against S. aureus Tour (S. aureus Tour 10^6) it was 1 microgram/ml; in the series with S. aureus Tour (setting [15]), 2 microgram/ml; against S. haemolyticus L 602 (setting [16]), 1.6 microgram/ml. Besides, the MIC is 0.12 microgram/ml in the series on S. pyogenes C203; 0.12 microgram/ml with S. faecalis ATCC 7080; 0.5 microgram/ml in series [2]; 0.25 microgram/ml in the series on S. pneumoniae UC41; greater than 128 microgram/ml in the series with E. coli SKF 12140.
